Data set [1] deals with Cam3.II^rev parasite cultures, trophozoite (25–30 h.p.i.) stage. Nature of the data set: 6-h pulse exposure of synchronized trophozoites, SYBR Green I growth inhibition in next cycle. The data set is classed as cell-based. Conditions: Plasmodium falciparum, read-out: P. falciparum 6-h Trophozoite Stage IC50 (Cam3.II). The procedure:
Assessment of the killing activity of ML901 in pulsed exposure assays was performed using a modification of a previously described procedure. Briefly, cultures of Cam3.II^rev trophozoites (1.5% final hematocrit; 1.4% final parasitemia) were pre-synchronized to a 5-h window at trophozoite or schizont stage. Compounds were serially diluted in complete medium in v-bottomed microplates. Parasites were exposed to ML901 for 3 h, 6 h, 9 h or 24 h before washing 5 times with 200 μl of complete medium, then returned to culture conditions. For the no wash samples, ML901 was left in the culture until the assay point. Growth inhibition was assessed in the second cycle by labelling with the DNA-binding dye, SYBR Green I. Quantification of total DNA level reflects cytostatic effects as well as cytocidal effects. Old media (140 μl) was firstly replaced with fresh media, followed by the addition of lysis buffer (20 mM Tris, pH 7.5, 5 mM EDTA, 0.008% w/v saponin, 0.08% v/v Triton X-100) containing SYBR Green I. Plates were incubated at room temperature for 2 h and fluorescence readings were taken using a microplate reader (BMG LABTECH).

Data set [2] concerns Pf3D7-pfs16-CBG99 gametocytes, immature (stage II/III) and mature (stage V). The data set is described as follows: Gametocyte killing assay (luciferase). The data set is classed as cell-based. The conditions noted are these: Plasmodium falciparum, 48 h. The protocol: Gametocytogenesis was induced on a tightly synchronised (>97% rings) asexual parasite culture (Pf3D7-pfs16-CBG99 (kind gift from Pietro Alano), 0.5% parasitemia and 6% hematocrit) with a combination of nutrient starvation and a decrease in hematocrit, as previously described. For immature gametocytes (>90% stage II/III), cultures were exposed to 50 mM N-acetyl glucosamine (NAG) on days 1–4 to eliminate residual asexual parasites and harvested at days 5–6. For mature (>95% stage V) gametocytes, NAG treatment occurred from days 3–7 and harvest at day 13. Stage II/III and V gametocyte cultures (2 % gametocytaemia 1.5 % haematocrit, 150 μL/well) were exposed to compounds and incubated at 37°C for 48 h under hypoxic conditions, after which luciferase activity was determined with a non-lysing D-luciferin substrate (1mM in 0.1M citrate buffer, pH 5.5, 100 μL) and bioluminescence was detected with a 2 s integration time with a GloMax-Multi Detection System with Instinct software.

Data set [3] has as its system P. falciparum liver stage schizont (NF135). The data set is described as follows: Liver stage schizont assay in primary human hepatocytes (NF135). The data set is classed as cell-based. The conditions noted are these: Plasmodium falciparum, Hepatocyte, 96 h, four days. The protocol: (§1) Activity against liver stage parasites was performed using a modification of published procedures. Briefly, cryopreserved human primary hepatocytes (NF175: H1500.H15B+ Lot No. HC0-6, TebuBio or NF135: F00995-P Lot No. IRZ, BioIVT) were thawed and seeded at 18,000 cells per well in collagen-coated 384-well microtiter plates in medium containing 10% heat inactivated fetal bovine serum (hiFBS). Cells were cultured at 37°C in 5% CO2. For NF175, medium was replaced by fresh medium containing 10% hiFBS, 5 h post plating. For NF135, medium was replaced by medium containing 0.2% BSA, 24 h post plating. 48 h post plating, salivary glands from Plasmodium-NF175 or NF135-infected Anopheles stephensi mosquitoes were dissected, added to the hepatocytes (10,000 per well/ NF175; or 12,500 per well/ NF135) and allowed to infect for 3 hours. Sporozoites were then aspirated, and compounds diluted in medium containing 10% hiFBS or 0.2% BSA, were added to the hepatocytes. Medium containing 10% hiFBS or 0.2% BSA and compounds was refreshed daily for four days. Hepatocytes were fixed with ice-cold methanol and samples were blocked with 10% hiFBS in PBS. Schizonts were stained with rabbit anti-HSP70 in 10% hiFBS for 1–2 h followed by incubation with a mixture of secondary goat anti-rabbit AlexaFluor 594 antibody and 4′,6-diamidine-2′-phenylindole dihydrochloride (DAPI) in 10% hiFBS for 30 min. Samples were washed with PBS containing 0.05% Tween 20 between different steps. Cells were imaged on a PicoExpress high content imager, and images were analysed automatically using CellReporterXpress software. Data were analysed by logistic regression using a four-parameter (Hill equation) model and a least-squares method to find the best fit.

The test system of another data set is Primary hepatocytes. Nature of the data set: Toxicity to primary hepatocyte host cells in the liver stage assay. The class given is cell-based, human. The conditions noted are these: for IC50: Homo sapiens, Hepatocyte. The procedure: as §1
The target of another data set is T1, HsTyrRS (Homo sapiens, UniProt P54577).
T1 sequence (P54577 1-528): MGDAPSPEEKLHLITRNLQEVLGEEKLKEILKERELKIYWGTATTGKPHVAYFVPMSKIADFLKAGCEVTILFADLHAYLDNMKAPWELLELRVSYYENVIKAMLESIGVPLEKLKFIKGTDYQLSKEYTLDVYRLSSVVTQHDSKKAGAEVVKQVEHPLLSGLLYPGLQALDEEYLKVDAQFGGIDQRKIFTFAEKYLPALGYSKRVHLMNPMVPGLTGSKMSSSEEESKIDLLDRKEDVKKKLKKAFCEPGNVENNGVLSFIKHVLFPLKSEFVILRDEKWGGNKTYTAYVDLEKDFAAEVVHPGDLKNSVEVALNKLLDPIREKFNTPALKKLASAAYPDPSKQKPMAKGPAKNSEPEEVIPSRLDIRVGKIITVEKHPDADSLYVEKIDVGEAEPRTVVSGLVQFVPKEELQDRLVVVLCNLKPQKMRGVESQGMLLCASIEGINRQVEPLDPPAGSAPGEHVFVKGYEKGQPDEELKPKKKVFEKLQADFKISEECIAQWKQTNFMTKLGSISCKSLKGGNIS
Nature of the data set: Differential scanning fluorimetry (DSF) of HsTyrRS. The data set is classed as binding. The conditions noted are these: for thermal stabilisation of recombinant HsTyrRS (in words): with all substrates; for HsTyrRS Tm: with sulfamate, tyrosine and tRNA, apo 49.0 ± 0.2. The protocol: The effect on ML471 and analogues on the thermal stability of TyrRS enzymes was assayed as previously described. […] SYPRO Orange (Sigma-Aldrich; 5,000X concentrate in DMSO) was added to the reaction mixture at a final concentration of 5X. 25 μL of the sample was added into each well of a 96-well qPCR plate (Applied Biosystems). The plate was sealed and analysed using StepOnePlus Real-Time PCR system (Applied Biosystems). The samples were heated from 20°C to 90°C with a 1% continuous gradient. The thermal unfolding curve was plotted as the first derivative curve of the raw fluorescence values. The melting temperature (Tm), defined as the peak of the first derivative curve, was used to assess the thermal stability of protein-ligand complexes.

The mark [4] stands for this setting: read-out: Early stage gametocytes IC50.
Setting [5] is: read-out: Mature stage gametocytes IC50.
Setting [6] is: host cells of the NF135 experiment.
The mark [7] stands for this setting: host cells of the NF175 experiment.

Where two headings read alike, the source gives them in different places.

The IC50 is the concentration at which inhibition is half-maximal. On to `Nc1ncnc2c1c(C(F)(F)F)nn2[C@@H]1O[C@H](COS(N)(=O)=O)[C@@H](O)[C@H]1O` [ML107], for which the concentration for half-maximal inhibition (IC50) in data set [1] was 150 ± 33 nM.

Consider `CC(C)c1nn([C@@H]2O[C@H](COS(N)(=O)=O)[C@@H](O)[C@H]2O)c2ncnc(N)c12` [ML471, ((2R,3S,4R,5R)-5-(4-amino-3-isopropyl-1H-pyrazolo[3,4-d]pyrimidin-1-yl)-3,4-dihydroxytetrahydrofuran-2-yl)methyl sulfamate], for which the IC50 is 29.1 ± 3 nM in data set [1]; 112 nM in data set [2] (setting [4]); 392 nM in data set [2] (setting [5]); 5.5 nM in data set [3]; more than 100 nM with Primary hepatocytes (setting [6]); more than 10000 nM in the data set with Primary hepatocytes (setting [7]). Moreover, in the data set with Primary hepatocytes, the “toxicity against the primary hepatocyte host cells (in words)” value is “no toxicity”. Besides, the ΔTm at 200 µM on HsTyrRS (200 μM sulfamate, ATP, tyrosine, yeast tRNA, 37°C 4 h, read-out: HsTyrRS binding (DSF) Delta Tm) turned out to be 0.06 ± 0.04 °C. Moreover, the “thermal stabilisation of recombinant HsTyrRS (in words)” value on HsTyrRS is reported as “not stabilised”. For the same compound, the “HsTyrRS Tm” value on HsTyrRS (ATP) came out at 49.0 ± 0.2 °C.

Take `CC(C)Oc1nn([C@@H]2O[C@H](COS(N)(=O)=O)[C@@H](O)[C@H]2O)c2ncnc(N)c12` [ML723]: the half-maximal inhibitory concentration (IC50) in data set [1] was determined as 220 ± 31 nM.

On to `Nc1ncnc2c1c(OC(F)F)nn2[C@@H]1O[C@H](COS(N)(=O)=O)[C@@H](O)[C@H]1O` [ML901], for which the IC50 in data set [1] was 135 ± 14 nM; in data set [2] (setting [4]), 310 ± 60 nM; in data set [2] (setting [5]) it was 1660 ± 140 nM; in data set [3] it was 2.9 ± 0.9 nM; in the data set on Primary hepatocytes (setting [6]), more than 100 nM; with Primary hepatocytes (setting [7]), more than 10000 nM. For the same compound, the “HsTyrRS binding (DSF) Delta Tm” value on HsTyrRS (200 μM sulfamate, ATP, tyrosine, yeast tRNA, 37°C 4 h) worked out at 0.4 ± 0.1 °C. Also, at HsTyrRS, the “thermal stabilisation of recombinant HsTyrRS (in words)” value is given as “not stabilised”. For the same compound, the “HsTyrRS Tm” value on HsTyrRS (ATP) came to 49.4 ± 0.1 °C.

These data come from publication PMC11671014 (PLOS Pathogens, 2024).
